*1 amine or outer side, *2 acyl side, *3 side chain or, on linkers, in order; H or OH if unused. Where a SMILES comes first, the peptide text is derived from it. Side-chain parts run from the residue outwards. [ ]: non-standard residue; d: D form. The star is where a group is joined. DOTA = O=C(O)CN1CCN(CC(=O)O)CCN(CC(=O)*)CCN(CC(=O)O)CC1; NH(2-(imidazol-4-yl)ethyl) = c1ncc(CCN*)[nH]1; Suc = O=C(CCC(=O)[*:2])[*:1]
Key:
Parameters in all cases: species or system nude mice
in vivo = conditions: nude, mouse, total radioactivity
Experimental: (§1) The bispecific antibody I-125-hMN-14×679-F(ab′)2 (anti-CEA×anti-HSG, radiolabeled with iodine-125 as a tracer radionuclide) was injected into nude mice bearing GW39 human colon tumor xenografts. Twenty-four hours later, the Ga-67-IMP 241 peptide, prepared according to the method described in Example # 4, was injected. At specified times post-injection, five animals per time-point were sacrificed and tissues collected and counted for both I-125 and Ga-67 radioactivity, using dual energy windows for each respective radionuclide. Additionally, biodistribution of Ga-67-IMP 241 given alone, without bsAb pretargeting is shown in Table 3 (four animals per group in this series). In each Table, the data is presented in terms of percent injected dose per gram of tissue (± standard deviation). Additionally, the biodistribution data for I-125-hMN-14×679-F(ab′)2 and Ga-67-IMP 241, from the same experiment, is reported in terms of tumor-to non-tumor ratio (T/NT) (Tables 4 & 5, for 1–125 and Ga-67, respectively).

[1] = tested on: GW39 human colon tumor xenografts; assay: in vivo; conditions: mouse
Experimental: as §1

[2] = tested on: GW39 human colon tumor xenografts; conditions: mouse, in vivo
Experimental: as §1

[3] = Tumor-to-tissue ratio Lg. Intestine
[4] = Tumor-to-tissue ratio Sm. Intestine

NC(=O)[C@H](CCCCNC(=O)CNC(=O)CCC(=O)NCCc1cnc[nH]1)NC(=O)[C@@H](Cc1ccc(O)cc1)NC(=O)[C@H](CCCCNC(=O)CNC(=O)CCC(=O)NCCc1cnc[nH]1)NC(=O)[C@H](Cc1ccccc1)NC(=O)CN1CCN(CC(=O)O)CCN(CC(=O)O)CCN(CC(=O)O)CC1 [Ga-67-IMP 241, metal not drawn] ({DOTA}-FK([Gly-Suc-NH(2-(imidazol-4-yl)ethyl)])[dY]K([Gly-Suc-NH(2-(imidazol-4-yl)ethyl)])-NH2)
tissue to tissue ratio at 1 h (in vivo; Tumor-to-tissue ratio Blood): 1.7 ± 0.8 | tissue to tissue ratio at 2 h (in vivo; Tumor-to-tissue ratio Blood): 6.1 ± 5 | tissue to tissue ratio at 3 h (in vivo; Tumor-to-tissue ratio Blood): 8.5 ± 9.5 | tissue to tissue ratio at 4 h (in vivo; Tumor-to-tissue ratio Blood): 8.7 ± 4.6 | tissue to tissue ratio at 6 h (in vivo; Tumor-to-tissue ratio Blood): 12.1 ± 8 | tissue to tissue ratio at 1 h (in vivo; Tumor-to-tissue ratio Bone): 11.5 ± 11 | tissue to tissue ratio at 2 h (in vivo; Tumor-to-tissue ratio Bone): 24.6 ± 15.1 | tissue to tissue ratio at 3 h (in vivo; Tumor-to-tissue ratio Bone): 17.8 ± 13.7 | tissue to tissue ratio at 4 h (in vivo; Tumor-to-tissue ratio Bone): 18.3 ± 3.1 | tissue to tissue ratio at 6 h (in vivo; Tumor-to-tissue ratio Bone): 53 ± 41.7 | tissue to tissue ratio at 1 h (in vivo; Tumor-to-tissue ratio Kidney): 2.3 ± 1.6 | tissue to tissue ratio at 2 h (in vivo; Tumor-to-tissue ratio Kidney): 3.5 ± 2.2 | tissue to tissue ratio at 3 h (in vivo; Tumor-to-tissue ratio Kidney): 2.4 ± 1.8 | tissue to tissue ratio at 4 h (in vivo; Tumor-to-tissue ratio Kidney): 3.1 ± 1.1 | tissue to tissue ratio at 6 h (in vivo; Tumor-to-tissue ratio Kidney): 4.3 ± 2.7 | tissue to tissue ratio at 1 h (in vivo; [3]): 67.3 ± 44.1 | tissue to tissue ratio at 2 h (in vivo; [3]): 74.2 ± 55 | tissue to tissue ratio at 3 h (in vivo; [3]): 72.7 ± 89 | tissue to tissue ratio at 4 h (in vivo; [3]): 56.5 ± 21.7 | tissue to tissue ratio at 6 h (in vivo; [3]): 162 ± 270 | tissue to tissue ratio at 1 h (in vivo; Tumor-to-tissue ratio Liver): 8 ± 3.8 | tissue to tissue ratio at 2 h (in vivo; Tumor-to-tissue ratio Liver): 15.9 ± 8.9 | tissue to tissue ratio at 3 h (in vivo; Tumor-to-tissue ratio Liver): 13.1 ± 12 | tissue to tissue ratio at 4 h (in vivo; Tumor-to-tissue ratio Liver): 16.2 ± 8.6 | tissue to tissue ratio at 6 h (in vivo; Tumor-to-tissue ratio Liver): 16 ± 10.5 | tissue to tissue ratio at 1 h (in vivo; Tumor-to-tissue ratio Lungs): 4.5 ± 1.9 | tissue to tissue ratio at 2 h (in vivo; Tumor-to-tissue ratio Lungs): 13.1 ± 7.5 | tissue to tissue ratio at 3 h (in vivo; Tumor-to-tissue ratio Lungs): 11.4 ± 11.1 | tissue to tissue ratio at 4 h (in vivo; Tumor-to-tissue ratio Lungs): 13.5 ± 5.9 | tissue to tissue ratio at 6 h (in vivo; Tumor-to-tissue ratio Lungs): 20.2 ± 12.5 | tissue to tissue ratio at 1 h (in vivo; [4]): 18.6 ± 9.1 | tissue to tissue ratio at 2 h (in vivo; [4]): 27.7 ± 9.1 | tissue to tissue ratio at 3 h (in vivo; [4]): 35.5 ± 26 | tissue to tissue ratio at 4 h (in vivo; [4]): 22 ± 12.7 | tissue to tissue ratio at 6 h (in vivo; [4]): 47.2 ± 35.9 | tissue to tissue ratio at 1 h (in vivo; Tumor-to-tissue ratio Spleen): 10.7 ± 7.2 | tissue to tissue ratio at 2 h (in vivo; Tumor-to-tissue ratio Spleen): 26.6 ± 28.7 | tissue to tissue ratio at 3 h (in vivo; Tumor-to-tissue ratio Spleen): 16.3 ± 13.1 | tissue to tissue ratio at 4 h (in vivo; Tumor-to-tissue ratio Spleen): 26.1 ± 23.4 | tissue to tissue ratio at 6 h (in vivo; Tumor-to-tissue ratio Spleen): 17.4 ± 12.7 | tissue to tissue ratio at 1 h (in vivo; Tumor-to-tissue ratio Stomach): 36.7 ± 22.8 | tissue to tissue ratio at 2 h (in vivo; Tumor-to-tissue ratio Stomach): 52.8 ± 17.6 | tissue to tissue ratio at 3 h (in vivo; Tumor-to-tissue ratio Stomach): 73.6 ± 47.4 | tissue to tissue ratio at 4 h (in vivo; Tumor-to-tissue ratio Stomach): 56.9 ± 36 | tissue to tissue ratio at 6 h (in vivo; Tumor-to-tissue ratio Stomach): 112 ± 60.7 | Tumor-to-tissue ratio Blood [1]: above 6:1 | Tumor-to-tissue ratio Kidney [1]: ~3.5:1 | Clearance when given alone [2]: essentially clears completely within the first hour post-injection

From patent publication US7011816B2, “Labeling targeting agents with gallium-68 and gallium-67” (Immunomedics, Inc., priority 2001, dated 2006)
